Assay results from patent US6585953B2, “Synthesis of 17F labeled fluoroalkanes” (Wisconsin Alumni Research Foundation, priority 2000, dated 2003).
One block for each compound: values may come before it.

What was measured:
[1] = Clearance and distribution of inhaled tracer in test subjects; assay type: in vivo
Text: Positron emitting ^17F (Eβ^+(max)=1.74 MeV; t½≈64 seconds) has an ideal half life for probing such diverse processes as gray matter cerebral activity or gas-phase reactions on an industrial scale. Because of the very short half life of ^17F, tracers labeled with this isotope such as ^17F labeled fluoromethane provide very short half life cerebral blood flow agents that have important application in PET studies of seizure and other transient brain phenomena. The shorter half life of ^17F with respect to ^15O permits repeat images to be obtained twice as fast with ^17F labeled tracers as compared to ^15O labeled tracers such as water which is presently in wide use as a tracer as described above. The ability to scan twice as fast using ^17F labeled tracers allows more data to be collected in the same amount of time and should allow more test subjects to be evaluated using instruments that are currently in high demand. Additionally, ^17F labeled tracers show improved signal to noise level ratios over ^15O labeled tracers providing increased sensitivity. ^15O tracers such as ^15O labeled water are usually administered in a manner that is more invasive than are tracers such as ^17F labeled fluoromethane. For example, ^15O labeled tracers are usually administered by injection and arterial measurements are then made from an arterial cannulation. On the other hand, ^17F labeled tracers such as fluoromethane may be administered by having a test subject inhale the tracer, and arterial measurements can be made from exhalations.
FIG. 5 is a gas chromatograph (Porpak Q column; He carrier gas; thermal conductivity detector, electrochemical detector, and positron coincidence radiation detector) showing the radiochemical purity of ^17F labeled fluoromethane produced by the present invention. The radiochemical purity of the ^17F labeled fluoromethane was determined to be 91 percent with only ^17F labeled CF4 from the target as a radiochemical impurity. […] Thus, the presence of CF4 only impacts the dosimetry to the lungs and trachea.

[2] = cited from earlier work

Compound: FC(F)(F)F [CF4]
distribution into blood when inhaled ([1]; inhaled as tracer impurity, only impacts dosimetry to lungs and trachea): stays out of the blood

Compound: [15OH2] [^15O labeled water]
permeability surface product ([2]; at high flows the signal is reduced): relatively low
clearance from test subjects ([2]; usually administered by injection): slow to clear

clearance ([1]; by exhalation): rapidly cleared by exhalation
biological half life ([1]; in vivo): quite short
Compound: C[17F] [^17F labeled fluoromethane]
